Results from ChEMBL document CHEMBL3585343, “Fragment-Based Discovery of Low-Micromolar ATAD2 Bromodomain Inhibitors” (J Med Chem, 2015).
≈ marks a conversion by molar mass, not a printed value.

Columns and labels:
[1] = Distribution coefficient, log D of the compound at pH 7.4 by chromatographic method; assay type: physicochemical
[2] = target: Bromodomain-containing protein 4 (Homo sapiens, UniProt O60885, Y390A)
[3] = target: Bromodomain-containing protein 3 (Homo sapiens, UniProt Q15059, Y348A); assay: Binding affinity to 6-His-Thr BRD3 (1 to 435) BD1 (unknown origin) harboring BD2 Y348A mutant
[4] = target: Bromodomain-containing protein 3 (Homo sapiens, UniProt Q15059, Y37A); assay: Binding affinity to BRD3 6-His-Thr BRD3 (1 to 435) BD2 (unknown origin) harboring BD1 Y37A mutant
[5] = target: Bromodomain testis-specific protein (Homo sapiens, UniProt Q58F21, Y309A); assay: Binding affinity to 6-His-FLAG-Tev-BRDT BD1 (1 to 397) (unknown origin) harboring BD2 Y309A mutant
[6] = target: Bromodomain testis-specific protein (Homo sapiens, UniProt Q58F21, Y66A); assay: Binding affinity to 6-His-FLAG-Tev-BRDT BD2 (1 to 397) (unknown origin) harboring BD1 Y66A mutant
[7] = Solubility of the compound in phosphate buffered saline at pH 7.4 after 1 hr by CLND method; assay type: physicochemical
[8] = Lipophilicity, log P of the compound; assay type: physicochemical; details: octanol/water
[9] = Permeability across phosphatidyl choline membrane at pH 7.4 after 3 hrs by HPLC with UV detection method; assay type: ADME; details: not told, read-out: permeability
[10] = target: Bromodomain-containing protein 2 (Homo sapiens, UniProt P25440, Y386A)
[11] = target: Bromodomain-containing protein 2 (Homo sapiens, UniProt P25440, Y113A)
[12] = target: Bromodomain-containing protein 4 (Homo sapiens, UniProt O60885, Y97A)

Sequence of Bromodomain-containing protein 2 (Homo sapiens, UniProt P25440, Y386A) (P25440 whole entry Y386A): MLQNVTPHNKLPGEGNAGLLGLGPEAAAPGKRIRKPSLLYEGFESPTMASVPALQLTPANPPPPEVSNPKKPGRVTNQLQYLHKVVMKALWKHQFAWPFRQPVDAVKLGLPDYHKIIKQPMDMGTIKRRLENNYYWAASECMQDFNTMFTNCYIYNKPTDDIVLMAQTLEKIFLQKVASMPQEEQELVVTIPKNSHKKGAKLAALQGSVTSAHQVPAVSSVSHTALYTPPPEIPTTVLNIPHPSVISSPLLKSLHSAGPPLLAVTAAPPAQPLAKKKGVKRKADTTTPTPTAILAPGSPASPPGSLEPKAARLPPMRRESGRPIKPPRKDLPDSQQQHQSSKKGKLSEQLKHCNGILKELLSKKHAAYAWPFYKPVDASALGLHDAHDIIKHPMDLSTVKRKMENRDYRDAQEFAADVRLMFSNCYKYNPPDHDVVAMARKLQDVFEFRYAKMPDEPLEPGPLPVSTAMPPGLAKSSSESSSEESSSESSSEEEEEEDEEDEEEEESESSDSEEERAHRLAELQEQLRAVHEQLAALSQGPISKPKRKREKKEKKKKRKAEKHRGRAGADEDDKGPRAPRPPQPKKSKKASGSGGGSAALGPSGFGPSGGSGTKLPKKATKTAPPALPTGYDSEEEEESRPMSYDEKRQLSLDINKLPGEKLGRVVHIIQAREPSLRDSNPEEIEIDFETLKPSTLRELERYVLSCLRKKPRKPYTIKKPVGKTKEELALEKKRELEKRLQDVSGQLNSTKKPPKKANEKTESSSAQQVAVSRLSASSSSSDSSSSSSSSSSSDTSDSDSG
Sequence of Bromodomain-containing protein 3 (Homo sapiens, UniProt Q15059, Y37A) (Q15059 whole entry, looked up, stated change not applied): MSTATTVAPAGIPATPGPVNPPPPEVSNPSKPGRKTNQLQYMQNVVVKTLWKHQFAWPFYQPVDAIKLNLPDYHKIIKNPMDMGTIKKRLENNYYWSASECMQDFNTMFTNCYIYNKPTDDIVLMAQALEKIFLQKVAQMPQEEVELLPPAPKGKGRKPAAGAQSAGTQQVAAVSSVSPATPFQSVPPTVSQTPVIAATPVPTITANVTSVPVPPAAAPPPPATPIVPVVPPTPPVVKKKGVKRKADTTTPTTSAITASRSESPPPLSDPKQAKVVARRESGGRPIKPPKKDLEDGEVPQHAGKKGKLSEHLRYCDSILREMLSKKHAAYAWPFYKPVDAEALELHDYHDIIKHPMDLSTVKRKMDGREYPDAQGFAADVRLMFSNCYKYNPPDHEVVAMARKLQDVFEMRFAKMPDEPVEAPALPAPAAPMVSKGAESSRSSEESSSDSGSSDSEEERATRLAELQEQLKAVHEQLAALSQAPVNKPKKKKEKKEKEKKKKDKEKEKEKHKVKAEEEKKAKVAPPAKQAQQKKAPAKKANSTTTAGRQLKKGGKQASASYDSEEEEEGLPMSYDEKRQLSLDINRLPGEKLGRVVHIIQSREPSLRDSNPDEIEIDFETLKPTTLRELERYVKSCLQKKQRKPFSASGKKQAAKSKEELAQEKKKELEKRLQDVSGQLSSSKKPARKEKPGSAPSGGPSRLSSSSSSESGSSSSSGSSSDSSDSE
Sequence of Bromodomain-containing protein 2 (Homo sapiens, UniProt P25440, Y113A) (P25440 whole entry Y113A): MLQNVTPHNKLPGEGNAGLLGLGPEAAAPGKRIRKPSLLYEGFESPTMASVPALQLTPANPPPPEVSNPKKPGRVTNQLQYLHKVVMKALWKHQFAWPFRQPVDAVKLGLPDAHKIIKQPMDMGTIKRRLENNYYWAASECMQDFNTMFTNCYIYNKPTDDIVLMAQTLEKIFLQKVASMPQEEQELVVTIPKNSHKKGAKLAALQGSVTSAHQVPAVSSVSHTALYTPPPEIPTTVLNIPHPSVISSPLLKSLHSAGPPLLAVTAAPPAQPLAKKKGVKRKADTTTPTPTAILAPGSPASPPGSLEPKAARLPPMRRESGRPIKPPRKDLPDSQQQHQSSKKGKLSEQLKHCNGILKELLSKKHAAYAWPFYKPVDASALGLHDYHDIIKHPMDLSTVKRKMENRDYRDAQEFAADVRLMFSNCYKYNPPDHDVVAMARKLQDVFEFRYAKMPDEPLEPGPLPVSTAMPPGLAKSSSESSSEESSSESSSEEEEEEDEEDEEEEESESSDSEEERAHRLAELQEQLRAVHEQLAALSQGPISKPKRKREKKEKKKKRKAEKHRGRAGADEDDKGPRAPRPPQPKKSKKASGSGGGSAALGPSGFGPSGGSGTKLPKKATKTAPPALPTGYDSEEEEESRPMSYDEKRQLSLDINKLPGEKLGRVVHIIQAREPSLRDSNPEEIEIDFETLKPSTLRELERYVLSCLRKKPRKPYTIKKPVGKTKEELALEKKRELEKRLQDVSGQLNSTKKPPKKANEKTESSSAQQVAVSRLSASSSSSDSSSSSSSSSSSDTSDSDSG
Sequence of Bromodomain-containing protein 3 (Homo sapiens, UniProt Q15059, Y348A) (Q15059 2-726 Y348A limits assumed): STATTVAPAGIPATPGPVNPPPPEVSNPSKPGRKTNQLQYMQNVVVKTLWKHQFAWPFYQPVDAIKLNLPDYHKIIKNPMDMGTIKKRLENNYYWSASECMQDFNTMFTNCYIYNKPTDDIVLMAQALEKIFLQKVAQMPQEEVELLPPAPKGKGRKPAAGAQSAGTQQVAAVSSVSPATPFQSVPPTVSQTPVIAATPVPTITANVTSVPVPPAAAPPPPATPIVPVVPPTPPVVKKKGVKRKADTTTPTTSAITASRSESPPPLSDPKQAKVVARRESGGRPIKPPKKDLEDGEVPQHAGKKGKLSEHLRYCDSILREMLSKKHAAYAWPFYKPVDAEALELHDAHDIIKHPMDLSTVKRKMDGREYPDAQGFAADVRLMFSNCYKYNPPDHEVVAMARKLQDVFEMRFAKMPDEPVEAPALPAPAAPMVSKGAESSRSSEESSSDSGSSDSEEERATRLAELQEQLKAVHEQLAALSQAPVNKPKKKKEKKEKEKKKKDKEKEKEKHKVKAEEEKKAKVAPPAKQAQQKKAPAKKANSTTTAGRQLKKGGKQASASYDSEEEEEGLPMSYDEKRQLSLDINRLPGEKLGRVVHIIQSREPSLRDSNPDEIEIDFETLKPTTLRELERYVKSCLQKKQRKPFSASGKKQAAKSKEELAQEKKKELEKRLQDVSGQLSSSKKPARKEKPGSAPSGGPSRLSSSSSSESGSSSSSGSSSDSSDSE

Row | chromatographic logD [1] | IC50 [2] [µM] | SMILES | also measured
1 | 0.4 | 1.26 | Cc1cc2c(-c3cc[nH]n3)cnc(NC3CCNCC3)c2[nH]c1=O | –
2 | 0.8 | 6.31 | Cc1ncccc1-c1cnc(NC2CCNCC2)c2[nH]c(=O)c(C)cc12 | –
3 | 1.1 | 1 | Cc1ccc(-c2cnc(NC3CCNCC3)c3[nH]c(=O)c(C)cc23)cn1 | –
4 | 1.2 | – | Cc1cncc(-c2cnc(NC3CCNCC3)c3[nH]c(=O)c(C)cc23)c1 | IC50 [3]: 7.94 µM; IC50 [4]: 20 µM; IC50 [5]: 7.94 µM; IC50 [6]: 31.6 µM; solubility kinetic at 1 h [7]: ≥ 207 µM; logP [8]: 2.4; Papp at 3 h [9]: < 0.3 ×10⁻⁶ cm/s; IC50 [10]: 6.31 µM; IC50 [11]: 20 µM
5 | 0.9 | 3.16 | Cc1ccncc1-c1cnc(NC2CCNCC2)c2[nH]c(=O)c(C)cc12 | –
6 | 1.6 | 1.26 | COc1ccc(-c2cnc(NC3CCNCC3)c3[nH]c(=O)c(C)cc23)cn1 | –
7 | 1.1 | 1.26 | COc1cncc(-c2cnc(NC3CCNCC3)c3[nH]c(=O)c(C)cc23)c1 | IC50 [3]: 6.31 µM; IC50 [4]: 20 µM; IC50 [5]: 6.31 µM; IC50 [6]: 25.1 µM; solubility kinetic at 1 h [7]: 250 µM (≈ 91.4 µg/mL); logP [8]: 2.7; Papp at 3 h [9]: < 0.3 ×10⁻⁶ cm/s; IC50 [12]: 15.8 µM; IC50 [10]: 3.98 µM; IC50 [11]: 20 µM
8 | 1.7 | 6.31 | Cc1cc2c(-c3cncc(Cl)c3)cnc(NC3CCNCC3)c2[nH]c1=O | –
9 | -0.2 | 3.98 | Cc1cc2c(-c3cncc(C(N)=O)c3)cnc(NC3CCNCC3)c2[nH]c1=O | –
10 | 1.4 | 7.94 | Cc1cncc(-c2cnc(NC3CCNCC3)c3[nH]c(=O)c(C)cc23)c1C | –
11 | 0 | 2 | Cc1cc2c(-c3cncc(N)c3)cnc(NC3CCNCC3)c2[nH]c1=O | –
12 | 0.2 | 0.794 | Cc1cc2c(-c3cncc(NS(C)(=O)=O)c3)cnc(NC3CCNCC3)c2[nH]c1=O | –
13 | 0.3 | – | Cc1cc2c(-c3cncc(COC(N)=O)c3)cnc(NC3CCNCC3)c2[nH]c1=O | –
14 | 0.3 | 15.8 | Cc1cc2c(-c3cncnc3)cnc(NC3CCNCC3)c2[nH]c1=O | –
15 | – | 39.8 | Cc1cc2ccccc2[nH]c1=O | –
16 | – | 25.1 | Cc1cc2cccc(NCCN(C)C)c2[nH]c1=O | –
17 | – | > 50.1 | CCCNc1cccc2cc(C)c(=O)[nH]c12 | –
18 | – | 39.8 | Cc1cc2cccc(NCCO)c2[nH]c1=O | –
19 | – | 5.01 | Cc1cc2cccc(NCCCO)c2[nH]c1=O | –
20 | – | 50.1 | Cc1cc2cccc(NCc3ncc[nH]3)c2[nH]c1=O | –

Row | chromatographic logD [1] | IC50 [2] [µM] | SMILES | also measured
21 | – | > 50.1 | COCCNc1cccc2cc(C)c(=O)[nH]c12 | –
22 | – | > 50.1 | Cc1cc2cccc(NCCC(=O)O)c2[nH]c1=O | –
23 | – | 10 | Cc1cc2cccc(NCCCN(C)C)c2[nH]c1=O | –
24 | 0.6 | – | Cc1cc2ccnc(NC3CCNCC3)c2[nH]c1=O | –
25 | – | 12.6 | Cc1cc2ccnc(NCCC3CCNCC3)c2[nH]c1=O | –
26 | – | 25.1 | Cc1cc2ccnc(NCCC3CCCNC3)c2[nH]c1=O (configuration not stated) | –
27 | – | 158 | Cc1cc2ccnc(NCC(C)(C)CN(C)C)c2[nH]c1=O | –
28 | – | 15.8 | Cc1cc2ccnc(N[C@@H]3CCCNC3)c2[nH]c1=O | –
29 | 0.5 | – | Cc1cc2ccnc(NC3CCN(C)CC3)c2[nH]c1=O | –
30 | 2.8 | – | Cc1cc2ccnc(NC3CCN(C4CC4)CC3)c2[nH]c1=O | –
31 | 1.4 | – | COCCN1CCC(Nc2nccc3cc(C)c(=O)[nH]c23)CC1 | –
32 | 1.4 | 3.98 | COCCCN1CCC(Nc2nccc3cc(C)c(=O)[nH]c23)CC1 | –
33 | 2.5 | 0.794 | Cc1cc2c(-c3ccccc3)cnc(NC3CCNCC3)c2[nH]c1=O | –
34 | 1.4 | 1 | CC(=O)N1CCc2cc(-c3cnc(NC4CCNCC4)c4[nH]c(=O)c(C)cc34)ccc21 | –
35 | 1.3 | 0.631 | Cc1cc2c(-c3cccc(O)c3)cnc(NC3CCNCC3)c2[nH]c1=O | –
36 | 1.2 | 0.126 | Cc1cc2c(-c3cccc4[nH]ncc34)cnc(NC3CCNCC3)c2[nH]c1=O | –
37 | 0.8 | 2 | Cc1cc2c(-c3cccnc3)cnc(NC3CCNCC3)c2[nH]c1=O | –
38 | 0 | 0.794 | Cc1cc2c(-c3cn[nH]c3)cnc(NC3CCNCC3)c2[nH]c1=O | –
39 | 1 | 3.16 | Cc1cc2c(-c3ccncc3)cnc(NC3CCNCC3)c2[nH]c1=O | –
40 | 1 | 5.01 | Cc1cc2c(-c3ccccn3)cnc(NC3CCNCC3)c2[nH]c1=O | –

Row | SMILES | chromatographic logD [1] | IC50 [2] [µM] | also measured
41 | Cc1cc2ccnc(N[C@H]3C[C@H]4CC[C@@H](C3)N4C)c2[nH]c1=O | 1.2 | – | –
42 | Cc1cc2ccnc(N[C@@H]3C[C@H]4CC[C@@H](C3)N4C)c2[nH]c1=O | 1 | – | –
